One series has as its target SARS-CoV nsp13 helicase (Severe acute respiratory syndrome coronavirus, UniProt P0C6X7). The series is described as follows: biochemical.
For a further series, the target named is HCV NS3h helicase (Hepatitis C virus genotype 1a, UniProt P27958). It is filed as biochemical.
In series [1] the target is Dengue virus NS3 helicase (Dengue virus type 2, UniProt P14340). It is filed as biochemical.
For another series, the target named is FMDV 3Dpol (Foot-and-mouth disease virus serotype O, UniProt P03305). It is filed as biochemical.
Series [2] deals with MoMLV Reverse Transcriptase (Moloney murine leukemia virus, UniProt P03355). It is filed as biochemical.
The target in series [3] is Klenow fragment of E. coli DNA polymerase I (KF) (Escherichia coli, UniProt P00582). It is filed as biochemical.
The target in series [4] is T1, nsp13 (Severe acute respiratory syndrome coronavirus, UniProt P0C6X7). The series is described as follows: biochemical. It is filed as biochemical, SARS-CoV.
The target of series [5] is T1, nsp13. It is filed as binding, SARS-CoV.
The target of series [6] is T1, nsp13. It is filed as biochemical, SARS-CoV.
The next series has as its system dsDNA (31/18-mer). It is filed as binding.
For series [7], the system named is SARS-CoV replicon. The experiment in a line: microbe, parasite or virus in culture. To be noted: read-out: EC50 Replicon (RT-qPCR). It is filed as cell-based. In general terms: A replicon is a self-replicating genome or part of one, used to study replication in cells.
The subject of series [8] is SARS-CoV replicon. It is filed as cell-based.
The subject of the next series is RNA pol II/CMV promoter. It is filed as cell-based.
A further series has as its target WT-nsp13 (Severe acute respiratory syndrome coronavirus, UniProt P0C6X7). The series is described as follows: biochemical.
A short description of the next series: in vitro. To be noted: human.

Consider one molecule from patent US9266844B2 (priority 2012, dated 2016).

Entries after “also recorded” stand apart in the source; their conditions may differ. Read-outs that look alike come from different tables or passages of the source. Some results are limits rather than exact numbers.

Sequence of Klenow fragment of E. coli DNA polymerase I (KF) (P00582 324-928): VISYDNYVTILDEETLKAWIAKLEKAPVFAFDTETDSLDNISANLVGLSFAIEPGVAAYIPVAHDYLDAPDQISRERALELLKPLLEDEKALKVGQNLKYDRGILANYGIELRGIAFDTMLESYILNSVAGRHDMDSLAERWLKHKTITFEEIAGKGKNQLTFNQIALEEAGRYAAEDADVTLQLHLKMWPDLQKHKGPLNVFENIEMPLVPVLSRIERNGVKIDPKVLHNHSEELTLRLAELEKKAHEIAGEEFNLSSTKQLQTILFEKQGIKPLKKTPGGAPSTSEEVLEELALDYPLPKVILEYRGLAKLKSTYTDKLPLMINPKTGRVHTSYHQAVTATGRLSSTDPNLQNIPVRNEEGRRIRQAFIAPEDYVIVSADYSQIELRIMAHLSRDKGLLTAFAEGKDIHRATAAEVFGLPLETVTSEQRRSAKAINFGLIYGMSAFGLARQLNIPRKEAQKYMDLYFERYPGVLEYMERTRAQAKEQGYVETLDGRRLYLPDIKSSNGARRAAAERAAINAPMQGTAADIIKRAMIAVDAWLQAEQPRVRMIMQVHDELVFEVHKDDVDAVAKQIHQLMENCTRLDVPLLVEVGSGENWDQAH
Sequence of HCV NS3h helicase (P27958 1193-1657 limits assumed): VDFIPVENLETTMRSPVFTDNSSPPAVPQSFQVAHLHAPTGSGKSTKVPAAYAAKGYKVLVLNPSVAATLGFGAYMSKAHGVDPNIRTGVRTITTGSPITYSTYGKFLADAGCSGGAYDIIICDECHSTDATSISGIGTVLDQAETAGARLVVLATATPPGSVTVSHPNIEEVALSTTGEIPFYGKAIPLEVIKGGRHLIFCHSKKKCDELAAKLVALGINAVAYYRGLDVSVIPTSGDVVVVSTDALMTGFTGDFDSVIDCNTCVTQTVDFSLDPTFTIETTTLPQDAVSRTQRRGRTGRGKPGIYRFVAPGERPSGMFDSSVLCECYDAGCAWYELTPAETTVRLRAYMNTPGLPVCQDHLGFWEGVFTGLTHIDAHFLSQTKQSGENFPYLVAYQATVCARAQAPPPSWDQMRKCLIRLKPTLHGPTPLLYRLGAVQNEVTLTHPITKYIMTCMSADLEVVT
Sequence of FMDV 3Dpol (P03305 1863-2332 limits assumed): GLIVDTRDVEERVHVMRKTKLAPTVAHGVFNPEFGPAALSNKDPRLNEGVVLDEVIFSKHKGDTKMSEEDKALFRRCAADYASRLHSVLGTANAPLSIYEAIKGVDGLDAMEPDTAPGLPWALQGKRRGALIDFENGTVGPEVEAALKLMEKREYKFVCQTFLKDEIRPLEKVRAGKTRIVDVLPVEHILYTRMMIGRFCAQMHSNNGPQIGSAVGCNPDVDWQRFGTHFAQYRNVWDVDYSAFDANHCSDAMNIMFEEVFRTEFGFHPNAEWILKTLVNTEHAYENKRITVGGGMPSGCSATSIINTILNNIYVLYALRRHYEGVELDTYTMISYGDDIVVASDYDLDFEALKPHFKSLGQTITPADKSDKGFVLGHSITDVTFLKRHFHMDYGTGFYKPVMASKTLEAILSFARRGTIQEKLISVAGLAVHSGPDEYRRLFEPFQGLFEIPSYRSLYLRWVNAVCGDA
Sequence of Dengue virus NS3 helicase (P14340 1476-2093 limits assumed): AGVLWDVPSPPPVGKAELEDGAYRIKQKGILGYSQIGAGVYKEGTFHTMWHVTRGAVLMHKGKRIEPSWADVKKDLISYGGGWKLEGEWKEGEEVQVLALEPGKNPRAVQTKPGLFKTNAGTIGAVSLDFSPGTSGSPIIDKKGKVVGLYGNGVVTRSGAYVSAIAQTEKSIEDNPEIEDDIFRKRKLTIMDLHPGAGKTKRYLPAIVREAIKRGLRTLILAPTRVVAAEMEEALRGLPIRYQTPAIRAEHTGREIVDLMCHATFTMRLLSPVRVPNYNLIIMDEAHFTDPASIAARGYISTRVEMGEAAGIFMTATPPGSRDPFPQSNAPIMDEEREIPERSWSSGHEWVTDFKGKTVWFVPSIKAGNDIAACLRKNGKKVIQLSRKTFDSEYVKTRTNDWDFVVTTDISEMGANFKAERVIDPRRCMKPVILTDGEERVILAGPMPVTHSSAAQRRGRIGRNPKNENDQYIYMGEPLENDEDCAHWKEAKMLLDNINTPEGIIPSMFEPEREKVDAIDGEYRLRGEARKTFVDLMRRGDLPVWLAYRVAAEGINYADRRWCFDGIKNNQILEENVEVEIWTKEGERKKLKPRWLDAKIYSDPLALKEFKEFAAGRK

Regarding `C=CCn1c(S)nnc1CSc1ccccc1[N+](=O)[O-]` [SSYA10-001, 3-[(2-nitrophenyl)sulfanylmethyl]-4-prop-2-enyl-1H-1,2,4-triazole-5-thione], the half-inhibitory concentration (IC50) (commonly the concentration that inhibits the measured activity by half) at SARS-CoV nsp13 helicase (IC50 DNA (nsp13 unwinding)) was determined as 5.3 ± 2 µM; against SARS-CoV nsp13 helicase (IC50 RNA (nsp13 unwinding)), 5.7 ± 2.3 µM; against SARS-CoV nsp13 helicase (IC50 SARS-CoV RNA (nsp13 unwinding)), 5.6 ± 0.5 µM; on WT-nsp13 it was 6 µM. At SARS-CoV nsp13 helicase (read-out: inhibition of the helicase activity), the inhibition (in general, the share of the control response that was lost under treatment) at 20 µM was around 100%. Moreover, on HCV NS3h helicase, the “inhibition of HCV NS3h helicase activity” value is recorded as “did not inhibit; also recorded: specific for SARS-CoV helicase”. Also, in series [1], the “inhibition of Dengue virus NS3 helicase activity” value was “specific for SARS-CoV helicase”. Moreover, the “inhibition of FMDV 3Dpol polymerase” value on FMDV 3Dpol was “did not cause inhibition”. In series [2], the “inhibition of MoMLV Reverse Transcriptase” value was “did not cause inhibition”. In addition, in series [3], the “effect on KF polymerization and strand displacement (nucleic acid binding of the substance)” value is “did not prevent”. For the same molecule, the “inhibition of KF polymerase” value in series [3] was “did not cause inhibition”. The affinity on nsp13 [4], expressed as Ki, was 6 ± 1.7 µM. For the same molecule, the “mode of inhibition with respect to ATP and nucleic acid substrates” value at nsp13 [4] is on record as “non-competitive”. On nsp13 [5], the “effect on nsp13 binding to DNA” value is reported as “did not affect”. At nsp13 [6], the “effect on ATP hydrolysis by nsp13” value is reported as “did not affect”. Besides, the “change of pico green fluorescent counts with dsDNA” value in the series on dsDNA (31/18-mer) was “did not change”. In addition, the EC50 (usually the midpoint of the concentration-response curve) is 8.95 µM in the series on SARS-CoV replicon [7] (Severe acute respiratory syndrome coronavirus, HEK-293T, 48 h) and around 9 µM in the series on SARS-CoV replicon [7]. The “effect on SARS-CoV replication (RNase protection assay)” value with SARS-CoV replicon [8] is given as “interfered with SARS-CoV replication”. The “amount of RNA synthesized in NRC-transfected cells with vs without compound” value in the series on RNA pol II/CMV promoter is on record as “No difference was observed”. In addition, the “cytotoxicity at 250 μM” value in the series with HEK293T cells was “No cytotoxicity was observed”. Further, the “cytostatic effect (cell proliferation)” value with HEK 293T cells was “did not interfere with the proliferation”. In “in vitro”, this molecule gave a CC50 above 250 µM.
